According to the CheMixHub viscosity set:
“And” between values parts separate entries of the source, which are not always exact repeats. Equal entries are not always repeated.

C1CCC2=[NH+]CCCN2CC1.c1nc[n-]n1
Conditions | viscosity [mPa·s]
303.15 K, 100 kPa | 1356

C=CC(=O)OC
viscosity
Conditions | 293.15 K | 298.15 K | 303.15 K | 308.15 K | 313.15 K | 318.15 K
100 kPa | 0.5038 mPa·s | 0.4602 mPa·s | 0.435 mPa·s and 0.4197 mPa·s | 0.415 mPa·s and 0.3856 mPa·s | 0.396 mPa·s and 0.355 mPa·s | 0.3276 mPa·s
101 kPa | 0.5038 mPa·s and 0.492 mPa·s and 0.502 mPa·s | – | – | – | – | 0.3276 mPa·s and 0.375 mPa·s and 0.334 mPa·s

C=CC(=O)OCCCC
viscosity
Conditions | 293.15 K | 298.15 K | 303.15 K | 308.15 K | 313.15 K | 318.15 K
100 kPa | 0.8996 mPa·s | 0.8385 mPa·s | 0.782 mPa·s | 0.7306 mPa·s | 0.6833 mPa·s | 0.6387 mPa·s
101 kPa | 0.8996 mPa·s and 0.868 mPa·s | – | 0.782 mPa·s and 0.751 mPa·s and 0.781 mPa·s | – | 0.6833 mPa·s and 0.658 mPa·s and 0.684 mPa·s | 0.6387 mPa·s and 0.618 mPa·s
101.33 kPa | 0.8763 mPa·s | – | 0.7568 mPa·s | – | 0.6609 mPa·s | –

CC(=O)OC(C)(C)C
101 kPa
Conditions | viscosity [mPa·s]
298.15 K | 0.683
308.15 K | 0.596

CC(C)(C)c1ccccc1
viscosity [mPa·s]
Conditions | 293.15 K | 298.15 K | 303.15 K | 308.15 K | 313.15 K | 318.15 K | 323.15 K
100 kPa | – | 1.118 | – | 0.97 | – | 0.853 | –
102 kPa | 1.13 | – | 0.982 | – | 0.854 | – | 0.751

CC(C)CO
Conditions | viscosity
293.15 K, 101 kPa | 4.02 mPa·s and 4.009 mPa·s
293.15 K, 101.33 kPa | 4.008 mPa·s and 2.75 mPa·s
297 K, 101 kPa | 3.569 mPa·s
298.15 K, 101.3 kPa | 3.247 mPa·s and 3.256 mPa·s
298.15 K, 101.33 kPa | 3.537 mPa·s and 3.41 mPa·s and 3.41 mPa·s
303 K, 101 kPa | 2.943 mPa·s
303 K, 101.33 kPa | 2.58 mPa·s
303.15 K, 100 kPa | 2.938 mPa·s and 2.781 mPa·s
303.15 K, 101.3 kPa | 2.745 mPa·s and 2.743 mPa·s and 2.842 mPa·s
303.15 K, 101.33 kPa | 2.54 mPa·s and 2.982 mPa·s and 2.1 mPa·s
308 K, 101 kPa | 2.261 mPa·s
308.15 K, 100 kPa | 2.487 mPa·s and 2.231 mPa·s
308.15 K, 101.33 kPa | 2.433 mPa·s
313 K, 101 kPa | 2.169 mPa·s
313.15 K, 100 kPa | 2.174 mPa·s
313.15 K, 101 kPa | 2.17 mPa·s and 2.138 mPa·s and 1.96 mPa·s
313.15 K, 101.3 kPa | 2.08 mPa·s
313.15 K, 101.33 kPa | 2.186 mPa·s and 1.65 mPa·s
318.15 K, 101 kPa | 1.751 mPa·s and 1.834 mPa·s
318.15 K, 101.33 kPa | 1.804 mPa·s
323 K, 101 kPa | 1.632 mPa·s
323.15 K, 100 kPa | 1.637 mPa·s
323.15 K, 101.33 kPa | 1.663 mPa·s

CC1CCCO1 (centres undefined)
298.15 K
Conditions | viscosity [mPa·s]
101 kPa | 0.463
101.33 kPa | 0.4753

CCCC=O
Conditions | viscosity [mPa·s]
298.1 K, 101 kPa | 0.403

CCCCCC
viscosity
Conditions | 293.15 K | 298 K | 303 K | 303.15 K | 308.15 K | 313 K | 313.15 K | 318.15 K | 323 K | 323.15 K
100 kPa | – | – | – | 0.2941 mPa·s | – | – | 0.259 mPa·s and 0.26 mPa·s and 0.257 mPa·s | – | – | 0.2345 mPa·s and 0.231 mPa·s
101 kPa | 0.31 mPa·s and 0.3119 mPa·s | 0.31 mPa·s | 0.2673 mPa·s | – | 0.268 mPa·s and 0.265 mPa·s | 0.2482 mPa·s | – | 0.3 mPa·s and 0.245 mPa·s | 0.2285 mPa·s | 0.2333 mPa·s and 0.235 mPa·s
101.3 kPa | – | – | – | 0.2776 mPa·s and 0.286 mPa·s and 0.294 mPa·s | – | – | 0.274 mPa·s | – | – | 0.251 mPa·s
101.33 kPa | 0.31 mPa·s | – | 0.273 mPa·s and 0.2865 mPa·s | – | – | 0.247 mPa·s | 0.2391 mPa·s and 0.257 mPa·s and 0.257 mPa·s | 0.247 mPa·s | 0.226 mPa·s | 0.2524 mPa·s

CCCCCCCCCCCCCC(=O)OC
Conditions | viscosity [mPa·s]
323.15 K, 100 kPa | 2.301

CCCCCCCCCCCCc1ccccc1
102 kPa
Conditions | viscosity [mPa·s]
293.15 K | 5.47
303.15 K | 4.21
313.15 K | 3.33
323.15 K | 2.71

CCCCCCCC[P+](CC)(CC)CC.O=[N+]([O-])c1cnc[n-]1
100 kPa
Conditions | viscosity [mPa·s]
293.15 K | 398
298.15 K | 286
303.15 K | 212
308.15 K | 160
313.15 K | 124
318.15 K | 98
323.15 K | 78

CCCCCOC(=O)CCC
101 kPa
Conditions | viscosity [mPa·s]
298.15 K | 1.07
313.15 K | 0.86

CCCCCOC(C)=O
viscosity
Conditions | 293.15 K | 303.15 K | 313.15 K | 323.15 K
101 kPa | – | – | 0.663 mPa·s | 0.589 mPa·s
101.3 kPa | – | 0.7522 mPa·s and 0.7522 mPa·s | – | –
101.33 kPa | 0.931 mPa·s | 0.805 mPa·s | 0.676 mPa·s | 0.552 mPa·s

CCC[N+]1(C)CCCCC1.O=S(=O)([N-]S(=O)(=O)C(F)(F)F)C(F)(F)F
101.3 kPa
Conditions | viscosity [mPa·s]
293.15 K | 199
298.15 K | 147
303.15 K | 112
308.15 K | 86.6
313.15 K | 68.5
318.15 K | 55.1
323.15 K | 45.1

CCOC(=O)CC
Conditions | viscosity [mPa·s]
303.15 K, 101 kPa | 0.4833

CCn1cc[n+](C)c1.O=S(=O)([O-])C(F)(F)F
101 kPa
Conditions | viscosity
293.15 K | 48.6 mPa·s
298.15 K | 43.8 mPa·s and 40.44 mPa·s
303.15 K | 36.7 mPa·s and 34.02 mPa·s
308.15 K | 32.28 mPa·s
313.15 K | 26.6 mPa·s and 24.89 mPa·s
318.15 K | 21.55 mPa·s
323.15 K | 18.64 mPa·s

CN(C)CCO
viscosity
Conditions | 293.15 K | 298.15 K | 303.15 K | 308.15 K | 313.15 K | 318.15 K | 323.15 K
101 kPa | 4.27 mPa·s | 3.78 mPa·s | 3.24 mPa·s and 2.835 mPa·s | 2.91 mPa·s and 2.485 mPa·s | 2.53 mPa·s and 2.186 mPa·s | 2.27 mPa·s and 1.938 mPa·s | 2.04 mPa·s and 1.723 mPa·s
101.3 kPa | – | – | 2.419 mPa·s | – | 2.023 mPa·s | – | 1.734 mPa·s
